Measured values taken from patent US6677466B1, “Method for stabilizing hydrogen peroxide” (DSM Fine Chemicals Austria NFG GmbH & Co KG, priority 1999, dated 2004).

Test: O2 evolution from [Mn2O3{Me3tacn}2](PF6)2-catalysed decomposition of H2O2 with stabilizer
Type: physicochemical
Experimental: A 50% strength aqueous solution of H2O2 (304 mg; 4.46 mmol) was added to 454 mg (4.46 mmol) of methyl pyruvate and to 535 mg (4.46 mmol) of glyoxylic methyl ester methyl hemiacetal, respectively. In the case of methyl pyruvate, a marked evolution of heat was discovered during the addition. After one hour, the H2O2/α-keto ester mixture was mixed with 1 ml of solvent and added to a suspension of 1.0 mg of [Mn2O3{Me3tacn}2](PF6)2 catalyst in 4 ml of solvent. The suspension was introduced into a 50 ml flask which was maintained at room temperature in a water bath. As a result of this addition, in cases where undissolved catalyst was still present, the catalyst dissolved completely.
As a comparison, a suspension of 1.0 mg of [Mn2O3{Me3tacn}2](PF6)2 catalyst in 4 ml of solvent was combined with a 50% strength aqueous solution of H2O2 (304 mg; 4.46 mmol) and 1 ml of solvent without stabilizer.
The amount of oxygen which was evolved from the decomposition of the hydrogen peroxide was determined as a function of time using a Brooks meter, which permitted measurement of the gas flow and the total amount of evolved gas.

COC(=O)C(O)OC (stereo not drawn) [GMHA, glyoxylic methyl ester methyl hemiacetal]
O2 evolution V(O2) (Vmax(O2)*100%) (solv. acetic acid, t 5 min): 0%
O2 evolution V(O2) (Vmax(O2)*100%) (solv. acetic acid, t 10 min): 2%
O2 evolution V(O2) (Vmax(O2)*100%) (solv. acetic acid, t 15 min): 3%
O2 evolution V(O2) (Vmax(O2)*100%) (solv. acetic acid, t 20 min): 3%
O2 evolution V(O2) (Vmax(O2)*100%) (solv. acetic acid, t 25 min): 3%
O2 evolution V(O2) (Vmax(O2)*100%) (solv. acetic acid, t 30 min): 3%
O2 evolution V(O2) (Vmax(O2)*100%) (solv. acetic acid, t 35 min): 3%
O2 evolution V(O2) (Vmax(O2)*100%) (solv. acetic acid, t 40 min): 3%
O2 evolution V(O2) (Vmax(O2)*100%) (solv. acetic acid, t 50 min): 3%
O2 evolution V(O2) (Vmax(O2)*100%) (solv. acetic acid, t 60 min): 3%
O2 evolution V(O2) (Vmax(O2)*100%) (solv. acetic acid, t 70 min): 3%
O2 evolution V(O2) (Vmax(O2)*100%) (solv. acetic acid, t 80 min): 3%
O2 evolution V(O2) (Vmax(O2)*100%) (solv. acetone, t 5 min): 0%
O2 evolution V(O2) (Vmax(O2)*100%) (solv. acetone, t 10 min): 0%
O2 evolution V(O2) (Vmax(O2)*100%) (solv. acetone, t 15 min): 0%
O2 evolution V(O2) (Vmax(O2)*100%) (solv. acetone, t 20 min): 0%
O2 evolution V(O2) (Vmax(O2)*100%) (solv. acetone, t 25 min): 0%
O2 evolution V(O2) (Vmax(O2)*100%) (solv. acetone, t 30 min): 0%
O2 evolution V(O2) (Vmax(O2)*100%) (solv. acetone, t 35 min): 0%
O2 evolution V(O2) (Vmax(O2)*100%) (solv. acetone, t 40 min): 0%
O2 evolution V(O2) (Vmax(O2)*100%) (solv. acetone, t 50 min): 0%
O2 evolution V(O2) (Vmax(O2)*100%) (solv. acetone, t 60 min): 9%
O2 evolution V(O2) (Vmax(O2)*100%) (solv. acetone, t 70 min): 12%
O2 evolution V(O2) (Vmax(O2)*100%) (solv. acetone, t 80 min): 12%
O2 evolution V(O2) (Vmax(O2)*100%) (solv. acetonitrile, t 5 min): 0%
O2 evolution V(O2) (Vmax(O2)*100%) (solv. acetonitrile, t 10 min): 0%
O2 evolution V(O2) (Vmax(O2)*100%) (solv. acetonitrile, t 15 min): 0%
O2 evolution V(O2) (Vmax(O2)*100%) (solv. acetonitrile, t 20 min): 0%
O2 evolution V(O2) (Vmax(O2)*100%) (solv. acetonitrile, t 25 min): 0%
O2 evolution V(O2) (Vmax(O2)*100%) (solv. acetonitrile, t 30 min): 0%
O2 evolution V(O2) (Vmax(O2)*100%) (solv. acetonitrile, t 35 min): 0%
O2 evolution V(O2) (Vmax(O2)*100%) (solv. acetonitrile, t 40 min): 0%
O2 evolution V(O2) (Vmax(O2)*100%) (solv. acetonitrile, t 50 min): 0%
O2 evolution V(O2) (Vmax(O2)*100%) (solv. acetonitrile, t 60 min): 0%
O2 evolution V(O2) (Vmax(O2)*100%) (solv. acetonitrile, t 70 min): 0%
O2 evolution V(O2) (Vmax(O2)*100%) (solv. acetonitrile, t 80 min): 0%
O2 evolution V(O2) (Vmax(O2)*100%) (solv. ethyl acetate, t 5 min): 0%
O2 evolution V(O2) (Vmax(O2)*100%) (solv. ethyl acetate, t 10 min): 4%
O2 evolution V(O2) (Vmax(O2)*100%) (solv. ethyl acetate, t 15 min): 8%
O2 evolution V(O2) (Vmax(O2)*100%) (solv. ethyl acetate, t 20 min): 9%
O2 evolution V(O2) (Vmax(O2)*100%) (solv. ethyl acetate, t 25 min): 9%
O2 evolution V(O2) (Vmax(O2)*100%) (solv. ethyl acetate, t 30 min): 9%
O2 evolution V(O2) (Vmax(O2)*100%) (solv. ethyl acetate, t 35 min): 9%
O2 evolution V(O2) (Vmax(O2)*100%) (solv. ethyl acetate, t 40 min): 9%
O2 evolution V(O2) (Vmax(O2)*100%) (solv. ethyl acetate, t 50 min): 9%
O2 evolution V(O2) (Vmax(O2)*100%) (solv. ethyl acetate, t 60 min): 9%
O2 evolution V(O2) (Vmax(O2)*100%) (solv. ethyl acetate, t 70 min): 9%
O2 evolution V(O2) (Vmax(O2)*100%) (solv. ethyl acetate, t 80 min): 9%
O2 evolution V(O2) (Vmax(O2)*100%) (solv. methanol, t 5 min): 1%
O2 evolution V(O2) (Vmax(O2)*100%) (solv. methanol, t 10 min): 1%
O2 evolution V(O2) (Vmax(O2)*100%) (solv. methanol, t 15 min): 1%
O2 evolution V(O2) (Vmax(O2)*100%) (solv. methanol, t 20 min): 1%
O2 evolution V(O2) (Vmax(O2)*100%) (solv. methanol, t 25 min): 1%
O2 evolution V(O2) (Vmax(O2)*100%) (solv. methanol, t 30 min): 1%
O2 evolution V(O2) (Vmax(O2)*100%) (solv. methanol, t 35 min): 1%
O2 evolution V(O2) (Vmax(O2)*100%) (solv. methanol, t 40 min): 1%
O2 evolution V(O2) (Vmax(O2)*100%) (solv. methanol, t 50 min): 1%
O2 evolution V(O2) (Vmax(O2)*100%) (solv. methanol, t 60 min): 1%
O2 evolution V(O2) (Vmax(O2)*100%) (solv. methanol, t 70 min): 1%
O2 evolution V(O2) (Vmax(O2)*100%) (solv. methanol, t 80 min): 1%
O2 evolution V(O2) (Vmax(O2)*100%) (solv. t-butanol, t 5 min): 0%
O2 evolution V(O2) (Vmax(O2)*100%) (solv. t-butanol, t 10 min): 0%
O2 evolution V(O2) (Vmax(O2)*100%) (solv. t-butanol, t 15 min): 0%
O2 evolution V(O2) (Vmax(O2)*100%) (solv. t-butanol, t 20 min): 0%
O2 evolution V(O2) (Vmax(O2)*100%) (solv. t-butanol, t 25 min): 0%
O2 evolution V(O2) (Vmax(O2)*100%) (solv. t-butanol, t 30 min): 0%
O2 evolution V(O2) (Vmax(O2)*100%) (solv. t-butanol, t 35 min): 0%
O2 evolution V(O2) (Vmax(O2)*100%) (solv. t-butanol, t 40 min): 0%
O2 evolution V(O2) (Vmax(O2)*100%) (solv. t-butanol, t 50 min): 0%
O2 evolution V(O2) (Vmax(O2)*100%) (solv. t-butanol, t 60 min): 0%
O2 evolution V(O2) (Vmax(O2)*100%) (solv. t-butanol, t 70 min): 0%
O2 evolution V(O2) (Vmax(O2)*100%) (solv. t-butanol, t 80 min): 0%
